The values below come from ChEMBL document CHEMBL5303762, “Data for DCP probe BI-8668” (2023).

Data set [1] deals with Cholecystokinin receptor type A (Homo sapiens) (UniProt P32238). Description: CCKA/H Eurofins SafetyScreen44 (BI). Conditions: Compound concentration 10.0 uM.
The target in data set [2] is T1, 5-hydroxytryptamine receptor 1A (Homo sapiens) (UniProt P08908).
T1 sequence (whole entry): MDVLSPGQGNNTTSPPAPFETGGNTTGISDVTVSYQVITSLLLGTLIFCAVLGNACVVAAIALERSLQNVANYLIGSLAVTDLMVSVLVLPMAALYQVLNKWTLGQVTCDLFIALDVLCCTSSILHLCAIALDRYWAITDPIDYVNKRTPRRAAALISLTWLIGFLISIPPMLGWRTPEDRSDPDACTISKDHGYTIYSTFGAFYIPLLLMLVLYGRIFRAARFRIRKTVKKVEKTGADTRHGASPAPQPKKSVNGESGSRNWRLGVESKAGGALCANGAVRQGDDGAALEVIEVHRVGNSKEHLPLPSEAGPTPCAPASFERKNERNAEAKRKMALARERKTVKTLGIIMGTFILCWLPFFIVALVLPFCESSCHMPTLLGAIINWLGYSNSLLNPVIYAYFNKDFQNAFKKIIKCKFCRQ
Description: 5HT1A/H Eurofins SafetyScreen44 (BI). Conditions: Compound concentration 10.0 uM.

The target of data set [3] is Sodium-dependent serotonin transporter (Homo sapiens) (UniProt P31645). Put plainly: SLC6A4/H Eurofins SafetyScreen44 (BI). To be noted: filed as antagonist, Compound concentration 10.0 uM.
Data set [4] addresses 3',5'-cyclic-AMP phosphodiesterase 4D (Homo sapiens) (UniProt Q08499). Put plainly: PDE4D2 Eurofins SafetyScreen44 (BI). Conditions: Compound concentration 10.0 uM.
The target of data set [5] is Muscarinic acetylcholine receptor M3 (Homo sapiens) (UniProt P20309). Description: M3/H Eurofins SafetyScreen44 (BI). To be noted: Compound concentration 10.0 uM.
The target of data set [6] is T2, Alpha-2A adrenergic receptor (Homo sapiens) (UniProt P08913).
T2 sequence (whole entry): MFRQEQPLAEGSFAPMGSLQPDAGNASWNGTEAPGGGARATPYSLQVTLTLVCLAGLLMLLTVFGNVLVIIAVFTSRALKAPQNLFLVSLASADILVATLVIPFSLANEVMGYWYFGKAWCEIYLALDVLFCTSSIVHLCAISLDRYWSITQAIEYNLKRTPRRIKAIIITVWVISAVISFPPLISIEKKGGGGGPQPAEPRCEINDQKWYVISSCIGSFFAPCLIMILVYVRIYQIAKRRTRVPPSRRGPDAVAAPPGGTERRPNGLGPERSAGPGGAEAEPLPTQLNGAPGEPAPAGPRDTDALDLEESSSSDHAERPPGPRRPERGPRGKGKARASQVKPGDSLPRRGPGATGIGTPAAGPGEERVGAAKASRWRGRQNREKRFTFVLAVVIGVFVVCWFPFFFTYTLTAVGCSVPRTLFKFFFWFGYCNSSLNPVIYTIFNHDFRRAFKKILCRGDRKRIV
Description: ALPHA2A/HU Eurofins SafetyScreen44 (BI). Conditions: Compound concentration 10.0 uM.

Data set [7] has as its target Histamine H1 receptor (Homo sapiens) (UniProt P35367). Put plainly: H1/PYRIL/HS Eurofins SafetyScreen44 (BI). Conditions: Compound concentration 10.0 uM.
Data set [8] concerns the target Sodium-dependent dopamine transporter (Homo sapiens) (UniProt Q01959). Put plainly: DATRANS/HUM Eurofins SafetyScreen44 (BI). Conditions: Compound concentration 10.0 uM.
For data set [9], the target named is Cannabinoid receptor 2 (Homo sapiens) (UniProt P34972). Description: CB2/PERIPH/H Eurofins SafetyScreen44 (BI). To be noted: Compound concentration 10.0 uM.
The target in data set [10] is Sodium-dependent noradrenaline transporter (Homo sapiens) (UniProt P23975). Put plainly: NEUP/H Eurofins SafetyScreen44 (BI). To be noted: Compound concentration 10.0 uM.
For data set [11], the target named is Angiotensin-converting enzyme (Homo sapiens) (UniProt P12821). Put plainly: ACE(HU_AMTCH400) Eurofins SafetyScreen44 (BI).
Data set [12] concerns the target voltage-gated potassium channel (IKs; KCNQ1/KCNE1 as curated) (Rattus norvegicus, UniProt P15383+Q9Z0N7). Description: K+/VOLT/RA Eurofins SafetyScreen44 (BI). It is filed as protein-complex assay. Conditions: compound concentration 10 uM, read-out: % Ctrl.
In data set [13] the target is D(2) dopamine receptor (Homo sapiens) (UniProt P14416). Put plainly: D2SH_AGON Eurofins SafetyScreen44 (BI). Conditions: filed as agonist, Compound concentration 10.0 uM.
In data set [14] the target is Beta-2 adrenergic receptor (Homo sapiens) (UniProt P07550). Description: BETA2/HUM Eurofins SafetyScreen44 (BI). To be noted: filed as antagonist, Compound concentration 10.0 uM.
The target in data set [15] is Glucocorticoid receptor (Homo sapiens) (UniProt P04150). Put plainly: GCORTICOID/H Eurofins SafetyScreen44 (BI). To be noted: Compound concentration 10.0 uM.
The target in data set [16] is Histamine H2 receptor (Homo sapiens) (UniProt P25021). Description: H2/APT/HS Eurofins SafetyScreen44 (BI). Conditions: filed as antagonist, Compound concentration 10.0 uM.
For data set [17], the target named is Amiloride-sensitive sodium channel, ENaC (Homo sapiens, UniProt P37088+P51168+P51170). Description: Inhibition of Na+ current by Ussing Chamber. It is filed as functional, tissue-based, epithelium.
Data set [18] addresses Vasopressin V1a receptor (Homo sapiens) (UniProt P37288). Put plainly: V1A/HUM Eurofins SafetyScreen44 (BI). Conditions: Compound concentration 10.0 uM.
Data set [19] concerns the target T3, Muscarinic acetylcholine receptor M1 (Homo sapiens) (UniProt P11229).
T3 sequence (whole entry): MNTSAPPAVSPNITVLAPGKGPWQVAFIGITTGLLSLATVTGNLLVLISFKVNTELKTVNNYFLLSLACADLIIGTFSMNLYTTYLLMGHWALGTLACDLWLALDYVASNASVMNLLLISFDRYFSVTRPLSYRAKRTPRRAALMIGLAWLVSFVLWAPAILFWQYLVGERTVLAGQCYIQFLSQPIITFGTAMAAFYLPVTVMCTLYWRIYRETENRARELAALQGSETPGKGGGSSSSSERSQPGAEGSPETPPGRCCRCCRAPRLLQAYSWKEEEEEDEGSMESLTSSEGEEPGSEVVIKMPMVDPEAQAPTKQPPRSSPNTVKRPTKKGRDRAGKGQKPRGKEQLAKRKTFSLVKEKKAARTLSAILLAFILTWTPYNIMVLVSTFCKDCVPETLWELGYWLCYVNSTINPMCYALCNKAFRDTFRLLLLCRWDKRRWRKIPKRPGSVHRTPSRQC
Put plainly: M1/H Eurofins SafetyScreen44 (BI). To be noted: Compound concentration 10.0 uM.

The target of data set [20] is 5-hydroxytryptamine receptor 2A (Homo sapiens) (UniProt P28223). Description: 5HT2AH_AGON Eurofins SafetyScreen44 (BI). Conditions: filed as agonist, Compound concentration 10.0 uM.
For data set [21], the target named is Neuronal acetylcholine receptor; alpha4/beta2 (Homo sapiens) (UniProt P17787+P43681). Description: N_NEURO_A4B2 Eurofins SafetyScreen44 (BI). The data set is classed as protein-complex assay. To be noted: filed as agonist, Compound concentration 10.0 uM.

The source made the active and inactive calls. The rule behind the calls is not given here. A value given as a limit tells only on which side of the number the result lay.

Angiotensin-converting enzyme (Homo sapiens), sequence (P12821 whole entry): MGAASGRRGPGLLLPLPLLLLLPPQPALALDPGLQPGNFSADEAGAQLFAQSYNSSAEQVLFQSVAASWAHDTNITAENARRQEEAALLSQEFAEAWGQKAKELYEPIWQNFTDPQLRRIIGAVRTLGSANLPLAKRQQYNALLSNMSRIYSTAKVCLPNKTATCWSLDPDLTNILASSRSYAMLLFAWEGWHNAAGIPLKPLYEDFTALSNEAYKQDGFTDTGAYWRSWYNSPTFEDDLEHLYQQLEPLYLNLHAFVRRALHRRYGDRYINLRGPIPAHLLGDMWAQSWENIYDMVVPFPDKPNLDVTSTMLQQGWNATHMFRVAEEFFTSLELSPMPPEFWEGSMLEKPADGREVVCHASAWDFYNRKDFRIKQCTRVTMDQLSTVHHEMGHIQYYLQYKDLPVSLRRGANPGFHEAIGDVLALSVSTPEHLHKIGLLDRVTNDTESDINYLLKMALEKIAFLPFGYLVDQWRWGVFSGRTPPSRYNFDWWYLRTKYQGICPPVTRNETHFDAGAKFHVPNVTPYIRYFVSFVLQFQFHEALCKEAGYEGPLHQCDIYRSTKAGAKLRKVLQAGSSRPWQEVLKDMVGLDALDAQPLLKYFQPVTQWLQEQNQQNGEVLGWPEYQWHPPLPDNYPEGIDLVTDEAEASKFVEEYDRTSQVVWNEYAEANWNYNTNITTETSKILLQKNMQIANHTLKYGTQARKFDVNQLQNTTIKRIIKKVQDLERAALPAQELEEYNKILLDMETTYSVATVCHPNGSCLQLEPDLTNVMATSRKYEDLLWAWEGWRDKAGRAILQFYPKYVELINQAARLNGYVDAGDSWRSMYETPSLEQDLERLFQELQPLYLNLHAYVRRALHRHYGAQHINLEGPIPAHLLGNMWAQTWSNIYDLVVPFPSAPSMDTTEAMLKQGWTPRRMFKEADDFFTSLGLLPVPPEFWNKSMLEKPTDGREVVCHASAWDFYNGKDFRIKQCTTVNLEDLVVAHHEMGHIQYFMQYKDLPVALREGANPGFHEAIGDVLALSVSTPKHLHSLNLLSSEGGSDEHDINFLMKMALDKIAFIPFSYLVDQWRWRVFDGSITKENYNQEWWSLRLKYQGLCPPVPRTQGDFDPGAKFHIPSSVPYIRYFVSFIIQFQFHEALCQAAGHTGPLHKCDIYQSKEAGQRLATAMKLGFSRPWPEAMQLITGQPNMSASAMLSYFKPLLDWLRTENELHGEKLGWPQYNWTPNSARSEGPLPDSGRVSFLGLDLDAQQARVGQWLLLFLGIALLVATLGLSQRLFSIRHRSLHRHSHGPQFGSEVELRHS
Cannabinoid receptor 2 (Homo sapiens), sequence (P34972 whole entry): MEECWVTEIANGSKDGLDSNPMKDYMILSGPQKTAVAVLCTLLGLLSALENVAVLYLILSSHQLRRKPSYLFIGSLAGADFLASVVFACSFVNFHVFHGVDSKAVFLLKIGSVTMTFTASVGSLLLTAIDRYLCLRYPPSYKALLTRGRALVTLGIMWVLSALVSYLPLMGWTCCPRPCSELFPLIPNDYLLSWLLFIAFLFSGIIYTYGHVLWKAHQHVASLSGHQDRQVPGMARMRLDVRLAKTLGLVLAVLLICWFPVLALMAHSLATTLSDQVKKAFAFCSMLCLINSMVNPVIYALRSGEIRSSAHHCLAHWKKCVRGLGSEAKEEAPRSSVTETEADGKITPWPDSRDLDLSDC
Beta-2 adrenergic receptor (Homo sapiens), sequence (P07550 whole entry, looked up): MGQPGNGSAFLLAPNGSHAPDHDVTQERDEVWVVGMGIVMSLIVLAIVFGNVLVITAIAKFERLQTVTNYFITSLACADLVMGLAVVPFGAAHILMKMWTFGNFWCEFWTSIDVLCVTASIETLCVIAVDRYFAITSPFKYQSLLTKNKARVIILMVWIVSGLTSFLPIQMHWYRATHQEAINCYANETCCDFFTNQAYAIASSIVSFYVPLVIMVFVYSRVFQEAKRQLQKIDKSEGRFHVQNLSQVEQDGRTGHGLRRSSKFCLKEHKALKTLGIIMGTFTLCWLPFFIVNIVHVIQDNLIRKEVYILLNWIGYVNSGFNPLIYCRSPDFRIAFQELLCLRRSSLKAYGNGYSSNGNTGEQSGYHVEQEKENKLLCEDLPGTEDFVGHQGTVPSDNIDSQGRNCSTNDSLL
Muscarinic acetylcholine receptor M3 (Homo sapiens), sequence (P20309 whole entry, looked up): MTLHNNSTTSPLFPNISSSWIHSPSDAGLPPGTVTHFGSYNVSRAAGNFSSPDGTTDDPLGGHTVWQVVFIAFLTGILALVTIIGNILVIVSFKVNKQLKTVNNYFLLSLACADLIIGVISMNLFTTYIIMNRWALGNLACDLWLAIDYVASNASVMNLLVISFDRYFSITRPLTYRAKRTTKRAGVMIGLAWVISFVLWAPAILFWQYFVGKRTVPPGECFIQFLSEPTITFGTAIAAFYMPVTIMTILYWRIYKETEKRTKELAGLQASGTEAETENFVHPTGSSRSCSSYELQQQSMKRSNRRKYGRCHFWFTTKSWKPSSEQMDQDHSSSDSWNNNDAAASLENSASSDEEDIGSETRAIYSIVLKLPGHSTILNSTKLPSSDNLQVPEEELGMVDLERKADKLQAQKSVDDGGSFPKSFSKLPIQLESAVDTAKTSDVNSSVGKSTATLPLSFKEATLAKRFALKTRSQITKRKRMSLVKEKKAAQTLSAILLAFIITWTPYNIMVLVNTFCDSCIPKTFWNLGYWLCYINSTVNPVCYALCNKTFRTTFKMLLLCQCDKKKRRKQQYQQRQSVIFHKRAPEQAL
Glucocorticoid receptor (Homo sapiens), sequence (P04150 whole entry): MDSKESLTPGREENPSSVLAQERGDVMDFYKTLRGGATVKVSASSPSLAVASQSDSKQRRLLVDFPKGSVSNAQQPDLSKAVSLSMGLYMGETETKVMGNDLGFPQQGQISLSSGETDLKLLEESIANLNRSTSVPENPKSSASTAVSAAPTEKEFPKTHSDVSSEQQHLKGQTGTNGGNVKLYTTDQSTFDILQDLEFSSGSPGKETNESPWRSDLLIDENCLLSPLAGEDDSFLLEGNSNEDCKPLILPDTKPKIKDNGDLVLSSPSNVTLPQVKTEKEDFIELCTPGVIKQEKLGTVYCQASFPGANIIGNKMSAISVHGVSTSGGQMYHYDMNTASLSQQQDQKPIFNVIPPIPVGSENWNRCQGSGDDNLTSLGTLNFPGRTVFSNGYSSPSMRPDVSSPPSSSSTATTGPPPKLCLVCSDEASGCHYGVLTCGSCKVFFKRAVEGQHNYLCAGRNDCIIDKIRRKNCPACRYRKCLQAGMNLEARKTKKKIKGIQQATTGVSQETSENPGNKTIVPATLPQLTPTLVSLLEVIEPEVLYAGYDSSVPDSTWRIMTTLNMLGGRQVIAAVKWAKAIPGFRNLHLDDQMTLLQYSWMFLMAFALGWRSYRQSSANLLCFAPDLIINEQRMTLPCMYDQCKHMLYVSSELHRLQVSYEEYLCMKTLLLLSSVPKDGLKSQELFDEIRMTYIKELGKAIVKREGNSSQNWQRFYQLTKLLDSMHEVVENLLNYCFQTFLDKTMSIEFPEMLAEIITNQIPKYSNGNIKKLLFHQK
Cholecystokinin receptor type A (Homo sapiens), sequence (P32238 whole entry): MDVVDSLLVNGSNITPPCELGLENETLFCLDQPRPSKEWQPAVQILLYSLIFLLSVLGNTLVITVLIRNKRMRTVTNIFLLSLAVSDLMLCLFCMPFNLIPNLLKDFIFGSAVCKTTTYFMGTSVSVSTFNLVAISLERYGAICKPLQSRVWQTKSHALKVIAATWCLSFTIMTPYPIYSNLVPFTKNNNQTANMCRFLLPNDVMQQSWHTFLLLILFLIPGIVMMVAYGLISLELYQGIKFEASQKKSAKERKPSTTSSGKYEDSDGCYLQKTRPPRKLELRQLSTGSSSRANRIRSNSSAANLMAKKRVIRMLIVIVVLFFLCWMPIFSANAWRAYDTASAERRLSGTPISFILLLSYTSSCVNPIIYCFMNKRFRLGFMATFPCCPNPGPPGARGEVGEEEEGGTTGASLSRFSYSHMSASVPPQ
Sodium-dependent dopamine transporter (Homo sapiens), sequence (Q01959 whole entry): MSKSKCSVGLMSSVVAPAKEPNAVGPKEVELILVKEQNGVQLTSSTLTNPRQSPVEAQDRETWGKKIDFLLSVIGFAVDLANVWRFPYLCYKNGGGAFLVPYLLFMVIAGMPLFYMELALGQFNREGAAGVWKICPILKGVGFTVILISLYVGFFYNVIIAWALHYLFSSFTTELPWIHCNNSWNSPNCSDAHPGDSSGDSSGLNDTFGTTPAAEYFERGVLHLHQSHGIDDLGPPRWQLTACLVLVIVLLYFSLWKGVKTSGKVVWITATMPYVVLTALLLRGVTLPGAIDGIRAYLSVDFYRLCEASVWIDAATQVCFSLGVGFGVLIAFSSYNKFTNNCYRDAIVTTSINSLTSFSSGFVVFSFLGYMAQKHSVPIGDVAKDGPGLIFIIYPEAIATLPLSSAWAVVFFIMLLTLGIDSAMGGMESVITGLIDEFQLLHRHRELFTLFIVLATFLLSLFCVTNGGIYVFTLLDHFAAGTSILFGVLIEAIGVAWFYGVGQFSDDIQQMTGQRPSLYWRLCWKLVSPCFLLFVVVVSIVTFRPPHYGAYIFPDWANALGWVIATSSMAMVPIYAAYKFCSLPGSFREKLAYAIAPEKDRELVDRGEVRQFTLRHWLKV
Histamine H2 receptor (Homo sapiens), sequence (P25021 whole entry): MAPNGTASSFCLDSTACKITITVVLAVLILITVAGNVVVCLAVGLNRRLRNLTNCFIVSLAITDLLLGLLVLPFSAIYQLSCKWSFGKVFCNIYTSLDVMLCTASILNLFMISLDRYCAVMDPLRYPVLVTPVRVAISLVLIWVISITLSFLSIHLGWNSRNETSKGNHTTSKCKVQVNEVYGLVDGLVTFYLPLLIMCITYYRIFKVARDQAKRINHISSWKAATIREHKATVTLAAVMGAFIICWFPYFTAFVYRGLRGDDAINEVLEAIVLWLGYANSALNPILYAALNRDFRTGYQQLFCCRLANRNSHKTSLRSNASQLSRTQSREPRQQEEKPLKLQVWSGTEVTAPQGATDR

The IC50 is the point on the concentration scale where inhibition reaches its midpoint. With `CCn1c(CNC(=O)c2ncc(C)nc2N)[n+](CC)c2ccc(C(=O)N(C)CN(C)C)cc21`, the residual activity was 82% in data set [1]; 111% in [2]; 31% in data set [3]; 87% in [4]; 35% in [5]; 97% in data set [6]. Also, the residual activity in data set [7] was 94%; in data set [8], 90%; in [9], 96%; in data set [10], 91%; in data set [11] (Compound concentration 10.0 uM), 39%; in data set [13], 79%. Also, the residual activity in data set [14] was 104%; in [15] it was 97%; in data set [16] it was 120%; in data set [18] it was 107%; in data set [19] it was 76%; in [20] it was 91%. Further, the residual activity in data set [21] was 103%. In addition, the activity at 10 µM in data set [12] is listed as 103% (not active). In addition, the half-inhibitory concentration (IC50) in data set [17] is > 10 µM (not active).

With `CCn1c(CNC(=O)c2nc(Cl)cnc2N)[n+](CC)c2ccc(C(=O)N(C)CCN(C)C)cc21`, the residual activity in [1] was 84%; in [2], 107%; in [3], 97%; in data set [4], 99%; in [5], 20%; in [6], 112%. Also, the residual activity was 101% in data set [7]; 83% in data set [8]; 119% in data set [9]; 105% in data set [10]; 55.6% in data set [11] (Compound concentration 10.0 uM); 31% in data set [11] (Compound concentration 30.0 uM). In addition, the residual activity in [11] (Compound concentration 100.0 uM) is 24%; in data set [13], 101%; in [14] it was 94%; in data set [15] it was 115%; in data set [16] it was 117%; in data set [18], 109%. For the same molecule, the residual activity in data set [19] was 50%; in [20], 97%; in data set [21], 101%. The activity at 10 µM in [12] was 99% (not active). The IC50 in data set [17] is 0.017 µM (active).
